Results reported in ChEMBL document CHEMBL1165930, “The anticancer activity of 3- and 10-bromofascaplysins is mediated by caspase-8, -9, -3-dependent apoptosis” (Bioorg Med Chem, 2010).
Calls of active or inactive are those of the source. The rule behind the calls is not given here.

What was measured:
HeLa [1] = test: Cytotoxicity against human HeLa cells after 22 hrs by MTS assay; format: functional, cell-based
[2] = Effect on EGF-stimulated proliferation of mouse JB6 Cl41 cells assessed as cell viability at 250 nM after 22 hrs by MTS assay; format: functional; settings: JB6 Cl41, 22 h, read-out: Activity
THP-1 [3] = test: Induction of apoptosis in human THP1 cells after 24 hrs by FITC-conjugated annexin V and propidium iodide staining-based flow cytometry; format: functional, cell-based
HL-60 [4] = test: Induction of apoptosis in human HL60 cells assessed as total apoptotic cells at 50 to 100 nM after 24 hrs by FITC-conjugated annexin V and propidium iodide staining-based flow cytometry; format: functional
[5] = target: Cellular tumor antigen p53 (Mus musculus) (UniProt P02340); test: Inhibition of p53-mediated transcriptional activity in mouse JB6 Cl41 cells after 24 hrs by luciferase reporter gene assay; format: cell-based; settings: TDE = time-dependent effect
HL-60 [6] = test: Induction of apoptosis in human HL60 cells assessed as change in mitochondrial permeability at 500 nM after 24 hrs by DiOC6 staining-based flow cytometry (RVb = 90.3%); format: functional
[7] = Effect on EGF-stimulated proliferation of ERK2-expressing mouse JB6 Cl41 cells assessed as cell death at 250 nM after 22 hrs by MTS assay; format: functional
[8] = target: Cellular tumor antigen p53 (Mus musculus) (UniProt P02340); test: Inhibition of p53-mediated transcriptional activity in mouse JB6 Cl41 cells at 375 to 500 nM after 6 hrs by luciferase reporter gene assay relative to control; format: cell-based
HeLa [9] = test: Selectivity ratio of INCC50 for human HeLa cells to IC50 for human HeLa cells; format: functional
SK-MEL-28 [10] = test: Cytotoxicity against human SK-MEL-28 cells after 22 hrs by MTS assay; format: functional, cell-based; settings: SK-MEL-28, 22 h
THP-1 [11] = test: Induction of apoptosis in human THP1 cells assessed as non-viable necrotic cells at 500 nM after 24 hrs by FITC-conjugated annexin V and propidium iodide staining-based flow cytometry; format: functional
HL-60 [12] = test: Cytotoxicity against human HL60 cells after 22 hrs by MTS assay; format: functional, cell-based; settings: HL-60, 22 h
THP-1 [13] = test: Induction of apoptosis in human THP1 cells assessed as early apoptotic cells at 500 nM after 24 hrs by FITC-conjugated annexin V and propidium iodide staining-based flow cytometry; format: functional
HL-60 [14] = test: Induction of apoptosis in human HL60 cells assessed as decrease in Bid protein level at 500 nM after 24 hrs by Western blot analysis; format: functional, cell-based
THP-1 [15] = test: Selectivity ratio of INCC50 for human THP1 cells to IC50 for human THP1 cells; format: functional
HeLa [16] = test: Anticancer activity in human HeLa cells assessed as inhibition of colony formation by anchorage-independent soft agar assay; format: functional
HL-60 [17] = test: Induction of apoptosis in human HL60 cells assessed as early apoptotic cells at 250 nM after 24 hrs by FITC-conjugated annexin V and propidium iodide staining-based flow cytometry; format: functional
HL-60 [18] = test: Induction of apoptosis in human HL60 cells assessed as decrease in procaspase-9 level at 500 nM after 24 hrs by Western blot analysis; format: functional, cell-based
THP-1 [19] = test: Induction of apoptosis in human THP1 cells assessed as viable cells at 1000 nM after 24 hrs by FITC-conjugated annexin V and propidium iodide staining-based flow cytometry; format: functional; settings: THP-1, 24 h, read-out: Activity
HL-60 [20] = test: Induction of apoptosis in human HL60 cells assessed as decrease in procaspase-9 level at 250 nM after 24 hrs by Western blot analysis; format: functional, cell-based
THP-1 [21] = test: Induction of apoptosis in human THP1 cells assessed as non-viable necrotic cells at 1000 nM after 24 hrs by FITC-conjugated annexin V and propidium iodide staining-based flow cytometry; format: functional
[22] = target: Transcription factor Jun (Mus musculus) (UniProt P05627); test: Induction of AP1-mediated transcriptional activity in mouse JB6 Cl41 cells at 15 to 500 nM by luciferase reporter gene assay; format: cell-based
THP-1 [23] = test: Cytotoxicity against human THP1 cells after 22 hrs by MTS assay; format: functional, cell-based; settings: THP-1, 22 h
[24] = target: Transcription factor Jun (Mus musculus) (UniProt P05627); test: Induction of AP1-mediated transcriptional activity in mouse JB6 Cl41 cells after 24 hrs by luciferase reporter gene assay; format: cell-based
[25] = Effect on EGF-stimulated proliferation of ERK2-expressing mouse JB6 Cl41 cells assessed as cell viability at 125 nM after 22 hrs by MTS assay; format: functional; settings: JB6 Cl41, 22 h, read-out: Activity
[26] = Effect on EGF-stimulated proliferation of JNK1-expressing mouse JB6 Cl41 cells assessed as cell death at 250 nM after 22 hrs by MTS assay; format: functional
SK-MEL-28 [27] = test: Selectivity ratio of INCC50 for human SK-MEL-28 cells to IC50 for human SK-MEL-28 cells; format: functional
[28] = Selectivity ratio of INCC50 for mouse JB6 Cl41 cells to IC50 for mouse JB6 Cl41 cells; format: functional
HL-60 [29] = test: Induction of apoptosis in human HL60 cells assessed as decrease in procaspase-8 level at 250 nM after 24 hrs by Western blot analysis; format: functional, cell-based
THP-1 [30] = test: Induction of apoptosis in human THP1 cells assessed as late apoptotic cells at 1000 nM after 24 hrs by FITC-conjugated annexin V and propidium iodide staining-based flow cytometry; format: functional
HL-60 [31] = test: Anticancer activity in human HL60 cells assessed as inhibition of colony formation by anchorage-independent soft agar assay; format: functional
THP-1 [32] = test: Induction of apoptosis in human THP1 cells assessed as late apoptotic cells at 2000 nM after 24 hrs by FITC-conjugated annexin V and propidium iodide staining-based flow cytometry; format: functional

Transcription factor Jun (Mus musculus), sequence (P05627 whole entry): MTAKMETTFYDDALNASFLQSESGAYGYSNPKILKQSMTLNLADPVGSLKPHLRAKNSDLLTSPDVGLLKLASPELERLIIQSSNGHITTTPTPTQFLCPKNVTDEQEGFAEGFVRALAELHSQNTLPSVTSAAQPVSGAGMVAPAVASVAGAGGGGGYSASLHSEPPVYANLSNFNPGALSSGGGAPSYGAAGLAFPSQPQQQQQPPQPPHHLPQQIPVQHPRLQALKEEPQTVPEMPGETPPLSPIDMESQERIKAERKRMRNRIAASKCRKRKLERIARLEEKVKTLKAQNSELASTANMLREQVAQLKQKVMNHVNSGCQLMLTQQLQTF
Cellular tumor antigen p53 (Mus musculus), sequence (P02340 whole entry): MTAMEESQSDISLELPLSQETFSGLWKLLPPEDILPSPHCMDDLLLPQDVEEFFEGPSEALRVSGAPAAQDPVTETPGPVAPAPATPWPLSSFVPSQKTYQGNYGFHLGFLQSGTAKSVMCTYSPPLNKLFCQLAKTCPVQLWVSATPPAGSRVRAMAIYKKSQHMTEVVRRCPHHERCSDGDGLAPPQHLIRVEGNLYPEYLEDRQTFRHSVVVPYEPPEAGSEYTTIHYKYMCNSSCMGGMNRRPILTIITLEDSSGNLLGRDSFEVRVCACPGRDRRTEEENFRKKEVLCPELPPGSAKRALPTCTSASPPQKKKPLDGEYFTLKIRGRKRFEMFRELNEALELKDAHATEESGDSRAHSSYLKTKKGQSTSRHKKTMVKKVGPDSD

O=C1c2ccc(Br)cc2-[n+]2ccc3c([nH]c4ccccc43)c21.[Cl-]
IC50 (HeLa [1]): 0.337 µM | viability at 0.25 µM [2]: 60% | Activity (THP-1 [3]): Dose-dependent effect | Activity (HL-60 [4]): 20% | inhibition [5]: tde | Activity (HL-60 [6]): 30.6% | Activity [7]: 100% | inhibition [8]: 30% | Selectivity ratio (HeLa [9]): 3.1 | IC50 (SK-MEL-28 [10]): 0.785 µM | Activity (THP-1 [11]): 6.4% | IC50 (HL-60 [12]): 0.549 µM | Activity (THP-1 [13]): 13% | inhibition (HL-60 [14]): Active | Selectivity ratio (THP-1 [15]): 8.7 | INCC50 (HeLa [16]): 108.1 nM | Activity (HL-60 [17]): 40% | inhibition (HL-60 [18]): Active | viability at 1 µM (THP-1 [19]): 40.9% | inhibition (HL-60 [20]): Active | Activity (THP-1 [21]): 18% | Activity [22]: tde | IC50 (THP-1 [23]): 0.521 µM | Activity [24]: Dose-dependent effect | viability at 0.125 µM [25]: 30% | Activity [26]: 100% | Selectivity ratio (SK-MEL-28 [27]): 4.8 | Selectivity ratio [28]: 2.7 | inhibition (HL-60 [29]): Active | Activity (THP-1 [30]): 23.2% | INCC50 (HL-60 [31]): 103.5 nM | Activity (THP-1 [32]): 25.5%
